{"source": "paper PMC12299847", "about": "“Macroalgae-Inspired Brominated Chalcones as Cosmetic Ingredients with the Potential to Target Skin Inflammaging” (Marine Drugs, 2025)", "key": {"[1]": {"system": "HaCaT cells transfected with an Nrf2 luciferase reporter construct", "assay": "Cell viability (resazurin) in KeratinoSens cells", "type": "cell-based, human", "protocol": "Selected compounds (chalcones 1 and 2), and the positive control, DMF, were dissolved in sterile DMSO. Intermediate dilutions were prepared in culture medium, including the final concentration to be added to the 96-well plate, with a final volume of 200 µL per well. The KeratinoSens™ assay was conducted as previously described. In brief, cells were seeded at a density of 10,000 cells per well in 96-well white opaque plates (Greiner Bio-One GmbH, cat. no. 655083, Kremsmünster, Austria) and incubated for 24 h. The medium was then replaced with fresh medium containing 1% FBS and the test compounds, and cells were incubated for an additional 24 and 48 h. DMF was used as the positive control since it is a known Nrf2 activator. Cell viability was assessed in the same cells using resazurin. After 20 or 44 h of exposure to the test compounds, 50 µM of resazurin solution (in sterile PBS) was added to each well, and the plates were incubated for 4 h at 37 °C, 5% CO2 Following the resazurin incubation, the supernatant was transferred to a transparent 96-well plate, and absorbance was measured at 570 and 620 nm using a Synergy HT multi-mode microplate reader (BioTek, Bad Friedrichshall, Germany). […] Luminescence was then measured using a FLUOstar OMEGA Microplate Reader (BMG Labtech GmbH, Ortenberg, Germany). […]"}, "Nrf2": {"system": "Nrf2", "assay": "KeratinoSens assay, Nrf2 luciferase reporter", "type": "cell-based, human", "conditions": "24 h, compared to vehicle (DMSO)", "protocol": "The KeratinoSens™ assay was originally developed to assess the skin sensitization potential of Nrf2 activation, but it has also been utilized to evaluate the ability of natural compounds to induce this transcription factor [46, 47]. In this study, we assessed the capacity of chalcones 1 and 2 to activate Nrf2 after 24 and 48 h (Figure 8A–F).\nSelected compounds (chalcones 1 and 2), and the positive control, DMF, were dissolved in sterile DMSO. Intermediate dilutions were prepared in culture medium, including the final concentration to be added to the 96-well plate, with a final volume of 200 µL per well. The KeratinoSens™ assay was conducted as previously described. In brief, cells were seeded at a density of 10,000 cells per well in 96-well white opaque plates (Greiner Bio-One GmbH, cat. no. 655083, Kremsmünster, Austria) and incubated for 24 h. The medium was then replaced with fresh medium containing 1% FBS and the test compounds, and cells were incubated for an additional 24 and 48 h. DMF was used as the positive control since it is a known Nrf2 activator. Cell viability was assessed in the same cells using resazurin. After 20 or 44 h of exposure to the test compounds, 50 µM of resazurin solution (in sterile PBS) was added to each well, and the plates were incubated for 4 h at 37 °C, 5% CO2 Following the resazurin incubation, the supernatant was transferred to a transparent 96-well plate, and absorbance was measured at 570 and 620 nm using a Synergy HT multi-mode microplate reader (BioTek, Bad Friedrichshall, Germany). To measure luciferase activity, cells in the white opaque 96-well plates were washed with 1× PBS. An equal volume of 1× PBS and lysis buffer (One-GLO Luciferase, cat. no. E6130, Promega, Madison, WI, USA) was added to the wells, and the plates were incubated for 20 min at room temperature. Luminescence was then measured using a FLUOstar OMEGA Microplate Reader (BMG Labtech GmbH, Ortenberg, Germany).\nFigure 8 Nrf2 activation using the KeratinoSens™ assay in HaCaT cells transfected with an Nrf2 luciferase reporter construct, incubated for 24 h (A–C) or 48 h (D–F) with chalcones 1 and 2. DMF was used as a positive control. Data represent the results from four independent experiments. Non-linear regression analysis was performed using GraphPad Prism v.9.0.0 for Windows. The blue line represents the results of cell viability (% regarding the control) and the green line represents fold induction. Statistical analysis: one ANOVA with Dunnett’s multiple comparisons test, where significance includes. * p < 0.05, ** p < 0.01, *** p < 0.0005, and **** p < 0.0001."}}}
{"smiles": "COc1cc(Br)c(/C=C/C(=O)c2cc(OC)c(OC)cc2Br)cc1OC", "note": "[Chalcone 1]", "values": [{"measurement": "effect on cell viability", "setting": "[1]; 24 h, 5 µM and 7.5 µM", "result": "without affecting cell viability"}, {"measurement": "effect on cell viability", "setting": "[1]; 48 h", "result": "decrease in cell viability"}, {"measurement": "Nrf2 mean fold induction", "setting": "Nrf2; 7.5 µM", "result": 3.49, "unit": "fold"}, {"measurement": "fold induction at 5 µM", "setting": "Nrf2; Homo sapiens, 5 µM", "result": 3.18}, {"measurement": "fold induction at 7.5 µM", "setting": "Nrf2; Homo sapiens, 7.5 µM", "result": "~3.5"}]}
